The subject of data set [1] is C. elegans. Briefly: Toxicity to C. elegans (population growth). To be noted: Caenorhabditis elegans, read-out: LC50 (reduction of growth of the nematode population). On the procedure: C. elegans was maintained as previously described. The effect of the compounds studied on C. elegans population growth was determined as earlier presented.
The target of another data set is T1, hTS (Homo sapiens, UniProt P04818).
T1 construct: made in house
Briefly: Inhibition of TS-catalyzed reaction (tritium release from [5-3H]dUMP). The format is biochemical. To be noted: for remaining activity at 10 µM: compound 10 µM; for remaining activity at 100 µM: compound 100 µM. The source says: (§1) The recombinant human, rat, mouse, T. spiralis and C. elegans TS proteins were produced, purified and separated into phosphorylated and non-phosphorylated fraction, as previously described. TS activity was monitored, following tritium release from [5-^3H]dUMP, and its inhibition studied as earlier reported.

In another data set the target is T2, mTS (Mus musculus, UniProt P07607).
T2 construct: made in house
Described as above. The format is biochemical. To be noted: for remaining activity at 10 µM: compound 10 µM; for remaining activity at 100 µM: compound 100 µM.
Source text: as §1

A further data set addresses T3, CeTS (Caenorhabditis elegans, UniProt Q9Y052).
T3 sequence (Q9Y052 1-315): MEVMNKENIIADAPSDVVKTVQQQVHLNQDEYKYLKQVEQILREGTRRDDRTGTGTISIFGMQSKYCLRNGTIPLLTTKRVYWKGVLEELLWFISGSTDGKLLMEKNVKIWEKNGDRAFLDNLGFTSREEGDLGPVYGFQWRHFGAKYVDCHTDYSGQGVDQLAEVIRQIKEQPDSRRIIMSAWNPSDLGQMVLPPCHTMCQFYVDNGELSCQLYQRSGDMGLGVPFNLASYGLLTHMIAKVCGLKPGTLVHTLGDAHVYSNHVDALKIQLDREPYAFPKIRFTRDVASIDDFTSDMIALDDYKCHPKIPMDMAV
Described as above. To be noted: for remaining activity at 10 µM: compound 10 µM; for remaining activity at 100 µM: compound 100 µM. Format: biochemical, C. elegans.
Source text: as §1

The target in a further data set is TsTS (Trichinella spiralis, UniProt Q9NDD3). The description is as above. Format: biochemical, T. spiralis. To be noted: for remaining activity at 1000 µM: compound 1000 µM; for remaining activity at 100 µM: compound 100 µM.
Source text: as §1

Data set [2] deals with BJ normal human skin fibroblasts. The data set can be described thus: Cytotoxicity, neutral red uptake (NR) assay. Format: cell-based. Conditions: Homo sapiens, Skin fibroblast. On the procedure: (§2) Biological effect of alvaxanthone and rheediaxanthone B on normal (BJ) and cancer cells (U-118 MG and SCC-15) was estimated using two viability assays, the neutral red uptake (NR) and tetrazolium salts reduction (XTT) assays.
(§3) Human glioblastoma cells U-118 MG (ATCC® HTB-15), human squamous carcinoma cells SCC-15 (ATCC® CRL-1623), and normal human skin fibroblasts (ATCC® CRL-2522) were grown, their morphology checked, and number and viability estimated as earlier presented.
(§4) Influence of selected compounds on cells was tested by performing the cytotoxicity (NR and XTT) assays, proliferation assay, cell adhesion assay, cell migration assay, determination of intracellular ATP level, and apoptosis assay as previously reported.

For data set [3], the system named is U-118 MG human glioblastoma cells. Briefly: Cytotoxicity, neutral red uptake (NR) assay. The format is cell-based. The protocol: as §2, §3, §4
For data set [4], the system named is SCC-15 human squamous carcinoma cells. Briefly: Cytotoxicity, neutral red uptake (NR) assay. The format is cell-based. To be noted: Homo sapiens. The protocol:
as §2, §3, §4

In data set [5] the test system is C. elegans. Conditions: read-out: LC50 (C. elegans population growth); previously found; cited from earlier work.
Data set [6] relates to BJ cells. Briefly: Intracellular ATP level (CellTiterGlo). The format is cell-based, human. To be noted: 48-h incubation, fibroblasts. The protocol: (§5) Figure 4 Changes of caspase-3/7 activities and intracellular ATP level in BJ, U-118 MG, and SCC-15 cells after 48-h incubation with 5–40 µM alvaxanthone or rheediaxanthone B. Median results are presented of three independent experiments, each performed in triplicate. The whiskers are lower (25%) and upper (75%) quartile ranges.
(§6) On the other hand, rheediaxanthone B caused a reduction of ATP level down to around 30% in glioma cells and fibroblasts, and to 20% in squamous carcinoma cells (Figure 4). In general, with increasing Caspase-3/7 activity the ATP level was decreasing, in accord with the results of Reference.
as §4

Data set [7] concerns SCC-15 cells. The data set can be described thus: Intracellular ATP level (CellTiterGlo). The format is cell-based, human. Conditions: 48-h incubation, squamous carcinoma cells. The protocol:
as §5, §6, §4

Data set [8] relates to U-118 MG cells. The data set can be described thus: Intracellular ATP level (CellTiterGlo). To be noted: 48-h incubation, glioma cells. Format: cell-based, human. On the procedure: as §5, §6, §4
For orientation: Cellular ATP, detected with luciferase, serves as a proxy for viable cell number.

The test system of data set [9] is BJ, U-118 MG and SCC-15 cells. The data set can be described thus: NR assay, summary over the three cell lines. Conditions: Homo sapiens, 48 h, span over BJ. The format is cell-based, human. On the procedure:
as §2
Thus, alvaxanthone may be damaging mitochondria and impairing their metabolism exerting one of possible mechanisms active in destroying cancer cells. Changes of cell morphology in dependence on increasing alvaxanthone and rheediaxanthone B concentration were also recorded. While the glioma and squamous carcinoma cells formed clusters, lost their adhesion, shrank, and accumulated less NR dye, normal fibroblasts preserved rather normal shapes but the amount of the neutral red dye and confluence of cells decreased. In addition, a lower number of BJ cells was detected (Figure 1B).
as §4

The test system of data set [10] is BJ cells. Briefly: Cell adhesion, crystal violet assay. Conditions: 48-h treatment. Format: cell-based, human. On the procedure: (§7) Cancer metastasis, resulting from an impairment of adhesion between cancer cells and the extracellular matrix may cause cell migration from a primary tumor into distant parts of an organism. The cristal violet assay was used to examine alvaxanthone and rheediaxanthone B ability to influence cellular adhesion.
(§8) Figure 3 Influence of alvaxanthone or rheediaxanthone B on BJ, U-118 MG, and SCC-15 cells adhesion after 48-h treatment. The crystal violet assay was used. Results are medians of triplicate assays of three independent experiments expressed as a % of non-treated controls. The whiskers are lower (25%) and upper (75%) quartile ranges. * p ≤ 0.05, Kruskal–Wallis test (against non-treated control).
as §4

Data set [11] deals with SCC-15 cells. The data set can be described thus: Cell adhesion, crystal violet assay. Conditions: 48-h treatment. Format: cell-based, human. On the procedure: as §7, §8, §4
Data set [12] concerns U-118 MG cells. The data set can be described thus: Cell adhesion, crystal violet assay. The format is cell-based, human. Conditions: 48-h treatment. On the procedure:
as §7, §8, §4

Data set [13] concerns caspases 3/7 in BJ, U-118 MG, and SCC-15 cells. The data set can be described thus: Apo-ONE Homogenous Caspase-3/7 Assay. The format is cell-based, human. Conditions: 48 h, 5–40 µM, span over the three cell lines. The protocol:
as §5
The Apo-ONE® Homogenous Caspase-3/7 Assay provides a measurement of the executioner caspases 3/7 activation, characteristic for apoptosis induced via both the intrinsic and extrinsic pathway. It was used to determine apoptosis induction in cells by alvaxanthone and rheediaxanthone B. In each of the three cell lines, compared to the respective non-treated control, treatment with each of the two compounds for 48 h led to a significant activation of the caspases 3/7 (by 2- to 10-fold for alvaxanthone and 8- to 18-fold for rheediaxanthone B), the effect being stronger in cancer than normal cells (Figure 4).
as §4

[14] abbreviates: 20 µM dUMP, 50 µM meTHF, read-out: IC50 Assessment.
Setting [15] is: IC50 Assessment, 20 µM dUMP, 50 µM meTHF.
[16] abbreviates: 20 µM dUMP, 50 µM meTHF, read-out: % Remaining Activity.
[17] abbreviates: 20 µM dUMP and 50 µM meTHF, experiment not repeated, read-out: IC50.
Setting [18] is: neutral red assay, BJ, read-out: IC50.
The mark [19] stands for this setting: neutral red assay, U-118 MG, read-out: IC50.
[20] abbreviates: SCC-15, neutral red assay, read-out: IC50.
Where [21] appears, read: compound 1000 µM, 20 µM dUMP, 50 µM meTHF, read-out: % Remaining Activity.

Where two headings read alike, the source gives them in different places.

Chain of TsTS (Q9NDD3 entry or part of it): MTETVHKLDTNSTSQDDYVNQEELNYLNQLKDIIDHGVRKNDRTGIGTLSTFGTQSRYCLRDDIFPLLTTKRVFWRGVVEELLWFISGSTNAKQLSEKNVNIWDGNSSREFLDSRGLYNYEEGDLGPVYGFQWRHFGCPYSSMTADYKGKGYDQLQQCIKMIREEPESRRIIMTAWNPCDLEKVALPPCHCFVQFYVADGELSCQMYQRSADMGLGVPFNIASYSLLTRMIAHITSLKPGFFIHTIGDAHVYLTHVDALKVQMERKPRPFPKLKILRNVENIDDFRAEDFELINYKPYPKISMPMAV
T2 sequence (P07607 whole entry): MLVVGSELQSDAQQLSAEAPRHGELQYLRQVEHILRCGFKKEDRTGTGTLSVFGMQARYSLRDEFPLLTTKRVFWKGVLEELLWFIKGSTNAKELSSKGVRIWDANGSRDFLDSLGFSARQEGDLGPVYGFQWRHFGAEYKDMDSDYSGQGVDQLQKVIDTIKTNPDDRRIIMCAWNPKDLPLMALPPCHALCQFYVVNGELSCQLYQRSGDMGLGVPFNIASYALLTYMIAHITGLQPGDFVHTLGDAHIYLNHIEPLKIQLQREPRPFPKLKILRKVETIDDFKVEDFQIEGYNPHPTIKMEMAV
T1 sequence (P04818 whole entry): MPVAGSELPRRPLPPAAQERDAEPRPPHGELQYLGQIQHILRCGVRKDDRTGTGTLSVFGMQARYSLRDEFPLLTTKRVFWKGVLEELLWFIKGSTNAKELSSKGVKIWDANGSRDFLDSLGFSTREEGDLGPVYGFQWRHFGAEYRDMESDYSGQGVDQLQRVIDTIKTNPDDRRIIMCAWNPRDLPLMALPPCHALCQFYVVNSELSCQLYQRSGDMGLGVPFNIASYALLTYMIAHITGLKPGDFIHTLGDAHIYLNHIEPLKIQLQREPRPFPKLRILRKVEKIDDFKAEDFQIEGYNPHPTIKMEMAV

For the compound `COc1ccc2oc3ccccc3c(=O)c2c1` [2-OMe-Xanthone (20), 2-OMe-Xanthone], the LC50 (in general, the concentration lethal to half of the exposed cells or organisms) in the data set on C. elegans [1] came to 33.8 ± 2.1 µM. Also, the remaining activity (usually what remains of the control signal, in per cent) at 1000 µM at hTS was determined as 88%; at mTS, 84%; at CeTS, 95%; at TsTS (20 µM dUMP, 50 µM meTHF) it was 92%. In addition, the IC50 (usually the point on the concentration scale where inhibition reaches its midpoint) on hTS (setting [14]) was greater than 1000 µM; at mTS (setting [14]), greater than 1000 µM; at CeTS (setting [15]), greater than 1000 µM; against TsTS (setting [15]), greater than 1000 µM; in data set [2], greater than 40 µM; in [3] (U-118-MG), greater than 40 µM. This compound also returned an IC50 in data set [4] greater than 40 µM.
In the case of `COc1c(O)cc2oc3cc(O)c(CC=C(C)C)c(O)c3c(=O)c2c1CC=C(C)C` [α-Mangostin (21), α-Mangostin, reference compound], the remaining activity at 10 µM on hTS (20 µM dUMP, 50 µM meTHF) is 89%; on mTS (20 µM dUMP, 50 µM meTHF), 75%; on CeTS (20 µM dUMP, 50 µM meTHF), 79%. Further, the remaining activity at 100 µM at hTS (setting [16]) came to 19%; on mTS (setting [16]), 5%; on CeTS (setting [16]) it was 27%; at TsTS (20 µM dUMP, 50 µM meTHF), 85%. For the same compound, the LC50 in the data set on C. elegans [5] was 3.8 µM. The IC50 on TsTS (setting [15]) was greater than 100 µM.
`C=CC(C)(C)c1c2c(c3oc4c(O)c(O)ccc4c(=O)c3c1O)C(C)(C)C(C)O2` (centres unmarked) [Rheediaxanthone B (17), Rheediaxanthone B]: the “ATP level reduced down to” value in the data set with BJ cells [6] is “around 30%”; with SCC-15 cells [7] it was 20%; with U-118 MG cells [8], “around 30%”. Besides, the IC50 in [9] was less than 10 µM; at hTS (20 µM dUMP and 50 µM meTHF, mean ± S.E.M. (N=3) for alvaxanthone, rheediaxanthone B not repeated, read-out: IC50) it was 17.9 µM; at mTS (setting [17]), 14.3 µM; on CeTS (setting [17]), 11.4 µM; against TsTS (IC50, 20 µM dUMP and 50 µM meTHF, mean ± S.E.M. (N=3) for alvaxanthone, rheediaxanthone B not repeated), 50.8 µM; in [2] (setting [18]), 5.5 µM. Moreover, the IC50 in [3] (setting [19]) came to 4.75 µM; in data set [4] (setting [20]), 9.2 µM. Moreover, the 50% lethal concentration (LC50) with C. elegans [1] came out at 16 ± 10.2 µM. Also, the remaining activity at 10 µM on hTS (20 µM dUMP, 50 µM meTHF) is 59%; on mTS (20 µM dUMP, 50 µM meTHF), 56%; on CeTS (20 µM dUMP, 50 µM meTHF), 59%; on TsTS (compound 10 µM, 20 µM dUMP, 50 µM meTHF), 68%. The remaining activity at 100 µM on hTS (setting [16]) was 5%; on mTS (setting [16]), 2%; at CeTS (setting [16]) it was 14%; on TsTS (20 µM dUMP, 50 µM meTHF), 40%. Besides, the “concentration at which reduction of adhesion is significant/apparent” value in the data set on BJ cells [10] was determined as 5 µM; with SCC-15 cells [11], 5 µM; with U-118 MG cells [12] it was 10 µM. For the same compound, in data set [13], the “activation of the caspases 3/7 compared to non-treated control” value was 8- to 18 fold.
In the case of `COc1ccc2oc3cccc(O)c3c(=O)c2c1` [1-OH-7-OMe-Xanthone (19), 1-OH-7-OMe-Xanthone], the IC50 on hTS (setting [14]) is greater than 1000 µM; on mTS (setting [14]), greater than 1000 µM; on CeTS (setting [14]) it was greater than 1000 µM; at TsTS (setting [15]), greater than 1000 µM; in data set [2] (setting [18]), greater than 40 µM; in data set [3] (setting [19]), 40 µM. In addition, the IC50 in data set [4] (setting [20]) was greater than 40 µM. For the same compound, the remaining activity at 1000 µM was determined as 100% at hTS (setting [21]); 94% at mTS (setting [21]); 81% at CeTS (setting [21]); 89% on TsTS (20 µM dUMP, 50 µM meTHF).

The record behind these values is paper PMC7356228, “Alvaxanthone, a Thymidylate Synthase Inhibitor with Nematocidal and Tumoricidal Activities” (Molecules, 2020).
